This is an account of results in the RepoRT retention time repository (doi:10.1016/j.chroma.2015.03.063).

The nature of data set [1]: Agilent ZORBAX Eclipse Plus C18, 100 × 2.1 mm, 1.8 µm, 25 °C, 0.3 mL/min, estimated dead time 0.73 min; A: water + 0.1% acetic acid; B: methanol; gradient (min/%B) 0/5 6/20 13/35 18/50 24/65 30/90 40/90. To be noted: stereoisomer not certain.
The nature of data set [2]: RP, Thermo Scientific Accucore C18, 150 × 2.1 mm, 2.6 µm, 24 °C, 0.28 mL/min, estimated dead time 0.83 min; A: 90% water + 10% acetonitrile + 10 mM ammonium acetate; B: 20% water + 80% methanol + 10 mM ammonium acetate; gradient (min/%B) 0/0 2.5/0 7.5/30 12.5/30 15/40 20/100 27.5/100. As to conditions: stereoisomer not certain.

Regarding `CC(C)CC(N)C(=O)O` (stereo not drawn), the LC retention time in data set [1] is 5.02 min. On the same count and under the same terms, to `CCC(C)C(N)C(=O)O` (stereo not drawn) belongs 4.67 min. Regarding `OCC1OC(OC2(CO)OC(CO)C(O)C2O)C(O)C(O)C1O` (stereo not drawn), the LC retention time in data set [1] is 2.4 min. `CC1OC(OCC2OC(Oc3c(-c4ccc(O)c(O)c4)oc4cc(O)cc(O)c4c3=O)C(O)C(O)C2O)C(O)C(O)C1O` (stereo not drawn): the LC retention time in data set [1] was 11.6 min. As for `NC(N)=NCCCC(N)C(=O)O` (stereo not drawn), the LC retention time in data set [1] was 2.05 min. Turning to `COC(=O)C1=COC(OC2OC(CO)C(O)C(O)C2O)C2C(CO)=CCC12` (stereo not drawn), the LC retention time in data set [1] is 13.9 min. On to `O=c1cc(-c2ccc(O)cc2)oc2cc(OC3OC(CO)C(O)C(O)C3O)cc(O)c12` (stereo not drawn), for which the LC retention time in data set [1] was 18.2 min.

Turning to `O=Cc1ccc(CO)o1`, the LC retention time in data set [1] is 7.09 min. `NC(Cc1ccc(O)cc1)C(=O)O` (stereo not drawn): the LC retention time in data set [1] is 4.31 min. On the same count and under the same terms, the same measure for `COc1ccc(-c2coc3cc(OC4OC(CO)C(O)C(O)C4O)ccc3c2=O)cc1O` (stereo not drawn): 17.6 min; for `NC(Cc1c[nH]c2ccccc12)C(=O)O` (stereo not drawn): 9.7 min; for `O=C(O)c1cccnc1`: 3.34 min. Take `O=c1cc[nH]c(=O)[nH]1`: in data set [1], the LC retention time was 4.2 min. Take `O=C(C=Cc1ccc(O)c(O)c1)OC1CC(O)(C(=O)O)CC(O)C1O` (stereo not drawn): the LC retention time in data set [1] was 8.99 min.

On to `NC(=O)CC(N)C(=O)O` (stereo not drawn), for which, in data set [1], the LC retention time is 2.11 min.

With `NCCCCC(N)C(=O)O` (stereo not drawn), the LC retention time in data set [1] was 1.88 min. Consider `COc1cc(C=CC(=O)O)ccc1O`, for which the LC retention time in data set [1] is 11.5 min. As to `COc1ccc(-c2coc3cc(O)ccc3c2=O)cc1O`, the LC retention time in data set [1] is 23.6 min. Consider `CSCCC(N)C(=O)O` (stereo not drawn), for which the LC retention time in data set [1] is 3.21 min. Take `CC(O)C(N)C(=O)O` (stereo not drawn): the LC retention time in data set [1] was 2.12 min.

For `Nc1ncnc2nc[nH]c12`, in data set [1], the LC retention time is 2.73 min. As to `COc1ccc(-c2coc3cc(OC4OC(CO)C(O)C(O)C4O)ccc3c2=O)cc1` (stereo not drawn), the LC retention time in data set [1] was 21.6 min. In the case of `C=C1CCCC2(C)CC3(O)OC(=O)C(C)=C3CC12` (stereo not drawn), the LC retention time in data set [1] is 30.1 min.

For `CCCCC=CC=CC=O`, in data set [1], the LC retention time was 22.7 min. On to `O=C(O)c1ccc(O)c(O)c1`, for which the LC retention time in data set [1] was 7.74 min. With `CC(C)(C)NCC(O)COc1cccc2c1CCCC2=O` (stereo not drawn), the LC retention time in data set [2] is 7.63 min. In the case of `CCN(CC)C(=O)c1ccc(O)c(OC)c1`, the LC retention time in data set [2] is 8.07 min. Regarding `Cc1ccccc1CC(C)N` (stereo not drawn), the LC retention time in data set [2] is 6.42 min.

For `CCN(CC)C(=O)c1cccnc1`, the LC retention time in data set [2] is 5.49 min.

For the compound `C#CC1(O)CCC2C3C(C)CC4=C(CCC(=O)C4)C3CCC21C` (stereo not drawn), the LC retention time in data set [2] was 18.6 min. For `CC(Cc1ccccc1)NCCC#N` (stereo not drawn), the LC retention time in data set [2] was 8.95 min.

Consider `C[N+](C)(C)CC(=O)[O-]`, for which the LC retention time in data set [1] was 2.8 min. As for `CC(C)(C)NCC(O)COc1nsnc1N1CCOCC1` (stereo not drawn), the LC retention time in data set [2] is 7.05 min. On to `CC(C)NCC(O)COc1ccc(COCCOC(C)C)cc1` (stereo not drawn), for which the LC retention time in data set [2] is 8.86 min. As for `CC(C)NCC(O)COc1cccc2ccccc12` (stereo not drawn), in data set [2], the LC retention time was 9.86 min. Turning to `C[n+]1cccc(C(=O)[O-])c1`, in data set [1], the LC retention time is 2.21 min.

For `CCC1(O)CCC2C3CCC4=CC(=O)CCC4=C3C=CC21CC` (stereo not drawn), the LC retention time in data set [2] was 18.8 min.

As for `CNC(C)C(=O)c1ccc2c(c1)OCO2` (stereo not drawn), in data set [2], the LC retention time is 3.44 min. On the same count and under the same terms, to `CC(C)(C)NCC(O)COc1cccc2c1CC(O)C(O)C2` (stereo not drawn) belongs 4.97 min. With `C[N+](C)(C)CCO`, the LC retention time in data set [1] is 2.08 min. Consider `COc1ccc(CC(C)NCC(O)c2ccc(O)c(NC=O)c2)cc1.COc1ccc(CC(C)NCC(O)c2ccc(O)c(NC=O)c2)cc1.O=C(O)C=CC(=O)O` (stereo not drawn), for which the LC retention time in data set [2] was 7.62 min.

In the case of `CC(Cc1ccc(O)cc1)NCC(O)c1cc(O)cc(O)c1` (stereo not drawn), in data set [2], the LC retention time is 3.13 min. In the case of `CC(C)(O)C1CCC(C)(C2C(O)CC3(C)C4CC(OC5OC(CO)C(O)C(O)C5O)C5C(C)(C)C(OC6OCC(O)C(O)C6O)CCC56CC46CCC23C)O1` (stereo not drawn), in data set [1], the LC retention time is 32.2 min. In the case of `NC(Cc1ccccc1)C(=O)O` (stereo not drawn), the LC retention time in data set [1] is 7.22 min.

With `OCC1OC(OCC2OC(OC3(CO)OC(CO)C(O)C3O)C(O)C(O)C2O)C(O)C(O)C1O` (stereo not drawn), in data set [1], the LC retention time was 2.54 min. With `COc1cc(C(=O)O)cc(OC)c1O`, the LC retention time in data set [1] is 9.87 min. Consider `Nc1ncnc2c1ncn2C1OC(CO)C(O)C1O` (stereo not drawn), for which, in data set [1], the LC retention time was 5.25 min.

As for `NC(=O)N1c2ccccc2C=Cc2ccccc21`, the LC retention time in data set [2] was 10.7 min.

As for `CCC(=C(c1ccccc1)c1ccc(OCCN(C)C)cc1)c1ccccc1`, in data set [2], the LC retention time was 21.2 min.

Take `COc1ccc2c(c1)C13CCCCC1C(C2)N(C)CC3` (stereo not drawn): the LC retention time in data set [2] was 11 min. As to `Cc1ccc(C)c(OCCCC(C)(C)C(=O)O)c1`, the LC retention time in data set [2] was 17.9 min.

With `C=CCOc1ccccc1OCC(O)CNC(C)C` (stereo not drawn), the LC retention time in data set [2] was 8.57 min. For the compound `CC(N)Cc1ccc2c(c1)OCO2` (stereo not drawn), the LC retention time in data set [2] is 4.23 min.
